Laboratory results reported in ChEMBL document CHEMBL1157982, “Isolation, identification, and enantioselective synthesis of octane-1,3,7-triol: determination of its absolute configuration” (J Nat Prod, 1999).

Columns and labels:
Bacillus subtilis = experiment: Antibacterial activity against Bacillus subtilis at 5 umol/L; format: functional
[1] = Toxicity in rat; format: organism-based; conditions: in vivo

CCCCC[C@@H](O)CCO
Activity (Bacillus subtilis): 50%
LD50 [1]: 20000 mg/kg
